We go through 18 molecules from patent EP4617278A1, “NUCLEOTIDE ANALOG, AND COMPOSITION AND USE THEREOF” (priority 2022, dated 2024).

One test deals with RSV A2 virus. Nature of the test: RSV CPE assay. As to conditions: human respiratory syncytial virus, HEp-2, 120 h, read-out: RSV A2 (Hep-2 cell) EC50.
In the case of `CC(C)C(=O)O[C@H]1[C@@H](OC(=O)C(C)C)[C@](C#N)(c2ccc3c(N)ncnn23)O[C@@H]1COP(=O)(OCCSC(=O)C(C)(C)C)OCCSC(=O)C(C)(C)C` [Compound 30, (2R,3R,4R,5R)-2-(4-aminopyrrolo[2,1-f][1,2,4]triazin-7-yl)-5-((((bis(2-(pivaloylthio)ethoxy))phosphoryl)oxy)methyl)-2-cyanotetrahydrofuran-3,4-diyl bis(2-methylpropionate)], the 50% effective concentration (EC50) – broadly, the concentration needed to bring the measured effect to its halfway point – lay in the range of 200 to 500 nM. Still for that read-out and setting: the result for `CCC(CC)COC(=O)[C@H](Cc1ccccc1)N[P@@](=O)(OCOC(=O)OC(C)C)OC[C@H]1O[C@@](C#N)(c2ccc3c(N)ncnn23)[C@H](OC(=O)C(C)C)[C@@H]1OC(=O)C(C)C` [Compound 31b, (2R,3R,4R,5R)-2-(4-aminopyrrolo[2,1-f][1,2,4]triazin-7-yl)-2-cyano-5-((((S)-(((S)-1-(2-ethylbutoxy)-1-oxo-3-phenylpropan-2-yl)amino)(((isopropoxycarbonyl)oxy)methoxy)phosphoryl)oxy)methyl)tetrahydrofuran-3,4-diyl bis(2-methylpropionate)] reads 200 to 500 nM; that for `CCC(CC)COC(=O)C1(N[P@@](=O)(OCOC(=O)OC(C)C)OC[C@H]2O[C@@](C#N)(c3ccc4c(N)ncnn34)[C@H](OC(=O)C(C)C)[C@@H]2OC(=O)C(C)C)CCC1` [Compound 32b, (2R,3R,4R,5R)-2-(4-aminopyrrolo[2,1-f][1,2,4]triazin-7-yl)-2-cyano-5-((((S)-((1-((2-ethylbutoxy)carbonyl)cyclobutyl)amino)(((isopropoxycarbonyl)oxy)methoxy)phosphoryl)oxy)methyl)tetrahydrofuran-3,4-diyl bis(2-methylpropionate)], 500 to 1000 nM; that for `CCCCCOC(=O)C[C@H](N[P@](=O)(OC[C@H]1O[C@@](C#N)(c2ccc3c(N)ncnn23)[C@H](OC(=O)C(C)C)[C@@H]1OC(=O)C(C)C)Oc1ccccc1)C(=O)OCCCCC` [Compound 38b, (2R,3R,4R,5R)-2-(4-aminopyrrolo[2,1-f][1,2,4]triazin-7-yl)-2-cyano-5-((((S)-(((S)-1,4-dipentyloxy-1,4-dioxobutan-2-yl)amino)(phenoxy)phosphoryl)oxy)methyl)tetrahydrofuran-3,4-diyl bis(2-methylpropionate)], under 100 nM. In the case of `CCCCCOC(=O)C[C@H](N[P@@](=O)(OC[C@H]1O[C@@](C#N)(c2ccc3c(N)ncnn23)[C@H](OC(=O)C(C)C)[C@@H]1OC(=O)C(C)C)Oc1ccc(C(C)(C)C)cc1)C(=O)OCCCCC` [Compound 39a, (2R,3R,4R,5R)-2-(4-aminopyrrolo[2,1-f][1,2,4]triazin-7-yl)-2-cyano-5-((((R)-(((S)-1,4-dipentyloxy-1,4-dioxobutan-2-yl)amino)(4-tert-butylphenoxy)phosphoryl)oxy)methyl)tetrahydrofuran-3,4-diyl bis(2-methylpropionate)], the concentration for a half-maximal effect (EC50) is under 100 nM. For the molecule `CCCCCOC(=O)C[C@H](N[P@](=O)(OC[C@H]1O[C@@](C#N)(c2ccc3c(N)ncnn23)[C@H](OC(=O)C(C)C)[C@@H]1OC(=O)C(C)C)Oc1ccc(C(C)(C)C)cc1)C(=O)OCCCCC` [Compound 39b, (2R,3R,4R,5R)-2-(4-aminopyrrolo[2,1-f][1,2,4]triazin-7-yl)-2-cyano-5-((((S)-(((S)-1,4-dipentyloxy-1,4-dioxobutan-2-yl)amino)(4-tert-butylphenoxy)phosphoryl)oxy)methyl)tetrahydrofuran-3,4-diyl bis(2-methylpropionate)], the EC50 was under 100 nM. `CCC(CC)COC(=O)[C@H](Cc1ccccc1)N[P@](=O)(OC[C@H]1O[C@@](C#N)(c2ccc3c(N)ncnn23)[C@H](OC(=O)C(C)C)[C@@H]1OC(=O)C(C)C)Oc1ccccc1` [Compound 41b, (2R,3R,4R,5R)-2-(4-aminopyrrolo[2,1-f][1,2,4]triazin-7-yl)-2-cyano-5-((((S)-(((S)-1-(2-ethylbutoxy)-1-oxo-3-phenylpropan-2-yl)amino)(phenoxy)phosphoryl)oxy)methyl)tetrahydrofuran-3,4-diyl bis(2-methylpropionate)]: the EC50 is under 100 nM.

Regarding `CC(C)C(=O)O[C@H]1[C@@H](OC(=O)C(C)C)[C@](C#N)(c2ccc3c(N)ncnn23)O[C@@H]1CO[P@](=O)(N[C@@H](CC(=O)OC1CCC1)C(=O)OC1CCC1)Oc1ccccc1` [Compound 54a, (2R,3R,4R,5R)-2-(4-aminopyrrolo[2,1-f][1,2,4]triazin-7-yl)-2-cyano-5-((((R)-(((S)-1,4-dicyclobutoxy-1,4-dioxobutan-2-yl)amino)(phenoxy)phosphoryl)oxy)methyl)tetrahydrofuran-3,4-diyl bis(2-methylpropionate)], the EC50 lay in the range of 100 to 200 nM. The same measure, in the same setting: the result for `CC(C)C(=O)O[C@H]1[C@@H](OC(=O)C(C)C)[C@](C#N)(c2ccc3c(N)ncnn23)O[C@@H]1CO[P@@](=O)(N[C@@H](CC(=O)OC1CCC1)C(=O)OC1CCC1)Oc1ccccc1` [Compound 54b, (2R,3R,4R,5R)-2-(4-aminopyrrolo[2,1-f][1,2,4]triazin-7-yl)-2-cyano-5-((((S)-(((S)-1,4-dicyclobutoxy-1,4-dioxobutan-2-yl)amino)(phenoxy)phosphoryl)oxy)methyl)tetrahydrofuran-3,4-diyl bis(2-methylpropionate)] reads under 100 nM; that for `CC(C)(C)C(=O)O[C@H]1[C@@H](OC(=O)C(C)(C)C)[C@](C#N)(c2ccc3c(N)ncnn23)O[C@@H]1CO[P@](=O)(N[C@@H](CC(=O)OC1CCC1)C(=O)OC1CCC1)Oc1ccccc1` [Compound 57a, (2R,3R,4R,5R)-2-(4-aminopyrrolo[2,1-f][1,2,4]triazin-7-yl)-2-cyano-5-((((R)-(((S)-1,4-dicyclobutoxy-1,4-dioxobutan-2-yl)amino)(phenoxy)phosphoryl)oxy)methyl)tetrahydrofuran-3,4-diyl bis(2,2-dimethylpropionate)], 500 to 1000 nM. `CC(C)(C)C(=O)O[C@H]1[C@@H](OC(=O)C(C)(C)C)[C@](C#N)(c2ccc3c(N)ncnn23)O[C@@H]1CO[P@@](=O)(N[C@@H](CC(=O)OC1CCC1)C(=O)OC1CCC1)Oc1ccccc1` [Compound 57b, (2R,3R,4R,5R)-2-(4-aminopyrrolo[2,1-f][1,2,4]triazin-7-yl)-2-cyano-5-((((S)-(((S)-1,4-dicyclobutoxy-1,4-dioxobutan-2-yl)amino)(phenoxy)phosphoryl)oxy)methyl)tetrahydrofuran-3,4-diyl bis(2,2-dimethylpropionate)]: the EC50 was in the range of 200 to 500 nM. Same read-out and setting: in the case of `CC(C)(C)C(=O)O[C@H]1[C@@H](OC(=O)C(C)(C)C)[C@](C#N)(c2ccc3c(N)ncnn23)O[C@@H]1CO[P@](=O)(N[C@H](C=O)CC(=O)OC1(C2CCCC2)CCCC1)Oc1ccccc1` [Compound 61a, (2R,3R,4R,5R)-2-(4-aminopyrrolo[2,1-f][1,2,4]triazin-7-yl)-2-cyano-5-((((R)-(((S)-1,4-bicyclopentyloxy-1,4-dioxobutan-2-yl)amino)(phenoxy)phosphoryl)oxy)methyl)tetrahydrofuran-3,4-diyl bis(2,2-dimethylpropionate)] it was over 1000 nM. For `CC(C)(C)C(=O)O[C@H]1[C@@H](OC(=O)C(C)(C)C)[C@](C#N)(c2ccc3c(N)ncnn23)O[C@@H]1CO[P@@](=O)(N[C@H](C=O)CC(=O)OC1(C2CCCC2)CCCC1)Oc1ccccc1` [Compound 61b, (2R,3R,4R,5R)-2-(4-aminopyrrolo[2,1-f][1,2,4]triazin-7-yl)-2-cyano-5-((((S)-(((S)-1,4-bicyclopentyloxy-1,4-dioxobutan-2-yl)amino)(phenoxy)phosphoryl)oxy)methyl)tetrahydrofuran-3,4-diyl bis(2,2-dimethylpropionate)], the EC50 was in the range of 500 to 1000 nM.

With `CCC(CC)COC(=O)C[C@H](N[P@@](=O)(OC[C@H]1O[C@@](C#N)(c2ccc3c(N)ncnn23)[C@H](OC(=O)C(C)C)[C@@H]1OC(=O)C(C)C)Oc1ccccc1)C(=O)OCC(CC)CC` [Compound 62a, (2R,3R,4R,5R)-2-(4-aminopyrrolo[2,1-f][1,2,4]triazin-7-yl)-2-cyano-5-((((R)-(((S)-1,4-bis(2-ethylbutoxy)-1,4-dioxobutan-2-yl)amino)(phenoxy)phosphoryl)oxy)methyl)tetrahydrofuran-3,4-diyl bis(2-methylpropionate)], the EC50 was in the range of 200 to 500 nM. Consider `CCC(CC)COC(=O)C[C@H](N[P@](=O)(OC[C@H]1O[C@@](C#N)(c2ccc3c(N)ncnn23)[C@H](OC(=O)C(C)C)[C@@H]1OC(=O)C(C)C)Oc1ccccc1)C(=O)OCC(CC)CC` [Compound 62b, (2R,3R,4R,5R)-2-(4-aminopyrrolo[2,1-f][1,2,4]triazin-7-yl)-2-cyano-5-((((S)-(((S)-1,4-bis(2-ethylbutoxy)-1,4-dioxobutan-2-yl)amino)(phenoxy)phosphoryl)oxy)methyl)tetrahydrofuran-3,4-diyl bis(2-methylpropionate)], for which the concentration for a half-maximal effect (EC50) was under 100 nM.

Staying with this test, now noted: read-out: RSV A2 (Hep-2 cell) EC50; HEp-2 cells, RSV A2 virus, 5 days, CCK8.
With `CCC(CC)COC(=O)[C@H](Cc1ccccc1)N[P@@](=O)(OC[C@H]1O[C@@](C#N)(c2ccc3c(N)ncnn23)[C@H](OC(=O)C(C)C)[C@@H]1OC(=O)C(C)C)Oc1ccc(C(C)(C)C)cc1` [Compound 53a, (2R,3R,4R,5R)-2-(4-aminopyrrolo[2,1-f][1,2,4]triazin-7-yl)-2-cyano-5-((((((S)-1-(2-ethylbutoxy)-1-oxo-3-phenylpropan-2-yl)amino)((R)-4-tert-butylphenoxy)phosphoryl)oxy)methyl)tetrahydrofuran-3,4-diyl bis(2-methylpropionate)], the EC50 is under 100 nM. On the same count and under the same terms, in the case of `CCC(CC)COC(=O)[C@H](Cc1ccccc1)N[P@](=O)(OC[C@H]1O[C@@](C#N)(c2ccc3c(N)ncnn23)[C@H](OC(=O)C(C)C)[C@@H]1OC(=O)C(C)C)Oc1ccc(C(C)(C)C)cc1` [Compound 53b, (2R,3R,4R,5R)-2-(4-aminopyrrolo[2,1-f][1,2,4]triazin-7-yl)-2-cyano-5-((((((S)-1-(2-ethylbutoxy)-1-oxo-3-phenylpropan-2-yl)amino)((S)-4-tert-butylphenoxy)phosphoryl)oxy)methyl)tetrahydrofuran-3,4-diyl bis(2-methylpropionate)] it was under 100 nM. With `CC(C)C(=O)O[C@H]1[C@@H](OC(=O)C(C)C)[C@](C#N)(c2ccc3c(N)ncnn23)O[C@@H]1CO[P@](=O)(N[C@@H](Cc1ccccc1)C(=O)OC1CCC1)Oc1ccccc1` [Compound 63a], the half-maximal effective concentration (EC50) was in the range of 200 to 500 nM.
